From patent US4725600A, “Pyrimidine compounds having activity as a cardiotonic anti-hypertensive cerebrovascular vasodilator and anti-platelet aggregation agent” (Fujisawa Pharmaceutical Co., Ltd., priority 1984, dated 1988) come the findings set out here.

One assay has as its system Mongrel dogs. The experiment in a line: Cardiotonic activity (Test Method A): percentage of dp/dt max change in anesthetized mongrel dogs. Format: in vivo. The conditions noted are these: Canis lupus familiaris, iv, injected into the femoral vein, read-out: dp/dt M.C. (percentage of dp/dt max changes). The protocol: Mongrel dogs of either sex were anesthetized with sodium pentobarbital, 35 mg/kg, i.p. The animals were allowed to breathe spontaneously. The left carotid artery was isolated and a catheter (USCI, #8F) filled with heparinized saline was inserted and advanced into the left ventricle. The catheter was connected to a pressure transducer (Nihonkohden, MPU-0.5A) to measure the left ventricular pressure, from which dp/dt max was derived by analog computing. To measure the systemic blood pressure the left femoral artery was cannulated. The blood pressure pulse was used to trigger a heart rate meter. Another catheter was positioned in the vena cave through right femoral vein for injection of drugs. Systemic blood pressure, left ventricular pressure, dp/dt max and heart rate were recorded simultaneously on a polygram (Nihonkohden, RJG-4008).
Test compound was dissolved in distilled water (0.2 ml/kg) or dimethyl sulfoxide (0.04 ml/kg) and injected into the femoral vein. The parameters after dosing were compared with those during the predosing period.
Test results were represented in terms of percentage of dp/dt max changes (dp/dt M.C.) calculated by following formula, and are shown in table 1. [formula]

Assay [1] relates to Platelet rich plasma (PRP). The experiment in a line: Anti-platelet activity (Test Method B): inhibition of ADP- or collagen-induced aggregation in rabbit platelet rich plasma. In kind it is cell-based. The conditions noted are these: Oryctolagus cuniculus, 37° C. The protocol:
Platelet rich plasma (PRP) which contains 6.5-7.5×10^8 platelet/ml was prepared from rabbit blood. To the 200 μl of PRP, 5 μl of calcium chloride (1 mM) and 50 μl of pH 7.4 Tris-acetate solution (5 mM) containing 120 mM NaCl and test compound were added successively, and then stirred for 2 min. at 37° C. To the solution 5 μl of adenosine diphosphate (ADP) (2.5 μM) or collagen (2.5 μg/ml) was added as an agregation inducer. Aggregation was measured by using an aggregometer (NKK HEMA TRACER 1).

For another assay, the system named is male Wistar rats (DOCA). The experiment in a line: Antihypertensive activity (Test Method C): maximum decrease of blood pressure in DOCA-treated uninephrectomized rats. In kind it is in vivo. To be noted: 1.0 mg/kg, oral; DOCA hypertensive rats, mean arterial pressure. The protocol: Antihypertensive activity
Five-week old male Wistar rats were uninephrectomized under anesthesia. Deoxycorticosterone acetate (DOCA) (30 mg/kg), suspended in peanut oil, was injected subcutaneously twice a week and 1% saline was substituted for the drinking water. Animals with mean blood pressure 150-200 mmHg were used for experiment between 5 and 7 weeks after surgery.
The test compounds were administered orally. Blood pressure was measured at the femoral artery by means of a pressure transducer and recorded as electrically integrated values of mean arterial pressure.

SMILES strings stand for the structures. pIC50: −log10 of the molar value. Where two headings read alike, the source gives them in different places.

With `Nc1cc(-c2ccncc2)c[nH]c1=O` [Amrinone, 3-Amino-5-(4-pyridyl)-2(1H)-pyridinone, reference compound], the change in vivo at 0.1 mg/kg in the assay on Mongrel dogs was found to be 9%.

As to `COc1ccc(-c2cc(=Nc3c(C)cc(C)cc3C)n(C)c(Cl)n2)cc1OC` [Example 1, 2-chloro-3,4-dihydro-6-(3,4-dimethoxyphenyl)-3-methyl-4-(2,4,6-trimethylphenylimino)pyrimidine], the change in vivo at 0.1 mg/kg with Mongrel dogs amounted to 45%.

With `COc1ccc(-c2cc(=Nc3c(C)cc(C)cc3C)n(C)cn2)cc1OC` [Example 2, 3,4-dihydro-6-(3,4-dimethoxyphenyl)-3-methyl-4-(2,4,6-trimethylphenylimino)pyrimidine], the change in vivo at 0.1 mg/kg in the assay with Mongrel dogs stood at 114%. The pIC50 in assay [1] (aggregation inducer ADP (2.5 μM), pH 7.4, read-out: ID50, ADP) is 6.59; in assay [1] (aggregation inducer collagen (2.5 μg/ml), pH 7.4, read-out: ID50, Collagen), 6.44. Besides, the “Effect Max (mean ratio of maximum decrease of blood pressure)” value in the assay on male Wistar rats (DOCA) came to 39.0%.

For `COc1ccc(-c2cc(=Nc3c(C)cc(C)cc3C)n(C)c(N(C)Cc3ccccc3)n2)cc1OC` [Example 3, 3,4-dihydro-6-(3,4-dimethoxyphenyl)-3-methyl-2-(N-methyl-N-benzylamino)-4-(2,4,6-trimethylphenylimino)pyrimidine], in the assay on Mongrel dogs, the change in vivo at 0.1 mg/kg stood at 29%.

`COc1ccc(-c2cc(=Nc3c(C)cc(C)cc3C)n(C)c3nncn23)cc1OC` [Example 11, 7,8-dihydro-5-(3,4-dimethoxyphenyl)-8-methyl-7-(2,4,6-trimethylphenylimino)-1,2,4-triazolo[4,3-a]pyrimidine]: the change in vivo at 0.1 mg/kg in the assay on Mongrel dogs came out at 60%.

As to `COc1ccc(-c2cc(=Nc3c(C)cc(C)cc3C)n(C)c3nnnn23)cc1OC` [Example 12, 4,5-dihydro-7-(3,4-dimethoxyphenyl)-4-methyl-5-(2,4,6-trimethylphenylimino)tetrazolo[1,5-a]pyrimidine], the change in vivo at 0.1 mg/kg in the assay on Mongrel dogs is 152%.

For the compound `COc1ccc(-c2cc(=Nc3c(C)cc(C)cc3C)n(C)c(C)n2)cc1OC` [Example 18, 3,4-dihydro-6-(3,4-dimethoxyphenyl)-2,3-dimethyl-4-(2,4,6-trimethylphenylimino)pyrimidine], in the assay with Mongrel dogs, the change in vivo at 0.1 mg/kg worked out at 72%.

In the case of `COc1ccc(-c2cc(N(C)c3c(C)cc(C)cc3C)nc(C)n2)cc1OC` [Examples (17-6) and 20, 6-(3,4-dimethoxyphenyl)-2-methyl-4-[N-methyl-N-(2,4,6-trimethylphenyl)amino]pyrimidine], the change in vivo at 0.1 mg/kg in the assay with Mongrel dogs was 76%.

With `CCn1c(C)nc(-c2ccc(OC)c(OC)c2)cc1=Nc1c(C)cc(C)cc1C` [Examples (17-12) and (19-12), 3,4-Dihydro-6-(3,4-dimethoxyphenyl)-3-ethyl-2-methyl-4-(2,4,6-trimethylphenylimino)pyrimidine], the change in vivo at 0.1 mg/kg in the assay with Mongrel dogs amounted to 87%.
